Assay results from US20240425490A1, “SULFAMIDE RIBONUCLEOTIDE REDUCTASE (RNR) INHIBITORS AND USES THEREOF” (Boundless Bio, Inc., priority 2021, published 2024).

Target: T1, RNR (RNR1:RNR2 1:1) (Homo sapiens, UniProt P23921)
T1 sequence (P23921 1-792): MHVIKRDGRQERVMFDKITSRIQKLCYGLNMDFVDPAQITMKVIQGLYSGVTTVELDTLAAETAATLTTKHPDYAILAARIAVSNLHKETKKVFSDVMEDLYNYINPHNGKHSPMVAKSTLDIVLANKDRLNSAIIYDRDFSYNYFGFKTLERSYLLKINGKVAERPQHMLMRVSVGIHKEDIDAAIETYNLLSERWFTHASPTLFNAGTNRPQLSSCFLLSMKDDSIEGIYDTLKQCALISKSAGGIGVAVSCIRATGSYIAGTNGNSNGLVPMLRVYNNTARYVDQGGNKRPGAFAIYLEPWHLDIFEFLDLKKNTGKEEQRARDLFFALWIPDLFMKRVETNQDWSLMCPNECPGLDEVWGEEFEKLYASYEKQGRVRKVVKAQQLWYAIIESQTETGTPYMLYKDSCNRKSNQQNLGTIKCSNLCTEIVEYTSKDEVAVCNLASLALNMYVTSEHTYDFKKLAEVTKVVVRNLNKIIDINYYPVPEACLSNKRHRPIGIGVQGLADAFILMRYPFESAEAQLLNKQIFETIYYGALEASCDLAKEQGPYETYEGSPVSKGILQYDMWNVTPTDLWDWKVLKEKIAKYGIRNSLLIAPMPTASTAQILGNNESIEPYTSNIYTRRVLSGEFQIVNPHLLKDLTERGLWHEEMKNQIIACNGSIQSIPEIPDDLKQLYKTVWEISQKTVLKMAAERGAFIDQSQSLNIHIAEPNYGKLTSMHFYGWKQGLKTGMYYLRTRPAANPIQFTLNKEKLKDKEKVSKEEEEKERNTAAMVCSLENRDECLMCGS
Experiment: RNR enzyme activity, rapid-fire mass spectrometry (RFMS) assay
Assay type: biochemical
Conditions: RNR 50 nM, CDP 5 μM, ATP 1 mM, 37° C., 45 min, compounds screened up to 50 μM, read-out: RF/MS IC50
In short: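 Human RNR1:RNR2 (1:1, 50 nM) pre-incubated 15 min at room temperature with compound, then reacted with 5 μM CDP and 1 mM ATP, no NADPH, for 45 min at 37 °C. Stopped with 6% HCOOH; turnover read by rapid-fire mass spectrometry; Triapine and hydroxyurea as reference compounds.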

Row | SMILES | IC50 [nM]
1 | COC(=O)C1CC12CCN(S(=O)(=O)N[C@H](c1n[nH]c(=O)o1)C(C)c1c(F)ccc(C)c1C)CC2 (stereo partly drawn) [Example 92, methyl 6-(N-((1S)-2-(6-fluoro-2,3-dimethylphenyl)-1-(5-oxo-4,5-dihydro-1,3,4-oxadiazol-2-yl)propyl)sulfamoyl)-6-azaspiro[2.5]octane-1-carboxylate] | 100 to 1000
2 | CCCCC1CCN(S(=O)(=O)N[C@H](c2n[nH]c(=O)o2)[C@H](C)c2c(F)ccc(C)c2C)CC1 [Example 79, 4-butyl-N-((1S,2R)-2-(6-fluoro-2,3-dimethylphenyl)-1-(5-oxo-4,5-dihydro-1,3,4-oxadiazol-2-yl)propyl)piperidine-1-sulfonamide] | 1000 to 10000
3 | Cc1ccc(F)c(C(C)[C@H](NS(=O)(=O)N2CCC(c3noc4ccc(F)cc34)CC2)c2n[nH]c(=O)o2)c1C (stereo partly drawn) [Example 74, N-((1S)-2-(6-fluoro-2,3-dimethylphenyl)-1-(5-oxo-4,5-dihydro-1,3,4-oxadiazol-2-yl)propyl)-4-(5-fluorobenzo[d]isoxazol-3-yl)piperidine-1-sulfonamide] | 100 to 1000
4 | Cc1ccc(F)c([C@H](C)[C@H](NS(=O)(=O)N2CCc3ccccc3C2)c2n[nH]c(=O)o2)c1C [Example 136, N-((1S,2S)-2-(6-fluoro-2,3-dimethylphenyl)-1-(5-oxo-4,5-dihydro-1,3,4-oxadiazol-2-yl)propyl)-3,4-dihydroisoquinoline-2(1H)-sulfonamide] | 1000 to 10000
5 | Cc1ccc(F)c([C@@H](C)[C@H](NS(=O)(=O)N2CCC3(CC2)CC(=O)N(C)C3)c2n[nH]c(=O)o2)c1C [Example 76, N-((1S,2R)-2-(6-fluoro-2,3-dimethylphenyl)-1-(5-oxo-4,5-dihydro-1,3,4-oxadiazol-2-yl)propyl)-2-methyl-3-oxo-2,8-diazaspiro[4.5]decane-8-sulfonamide] | 100 to 1000
6 | Cc1ccc(F)c([C@@H](C)[C@H](NS(=O)(=O)N2CCC(C)CC2C)c2n[nH]c(=O)o2)c1C (stereo partly drawn) [Example 8, N-((1S,2R)-2-(6-fluoro-2,3-dimethylphenyl)-1-(5-oxo-4,5-dihydro-1,3,4-oxadiazol-2-yl)propyl)-2,4-dimethylpiperidine-1-sulfonamide] | 1000 to 10000
7 | CNC(=O)C1CCN(S(=O)(=O)N[C@H](c2n[nH]c(=O)o2)[C@H](C)c2c(F)ccc(C)c2C)CC1 [Example 57, 1-(N-((1S,2R)-2-(6-fluoro-2,3-dimethylphenyl)-1-(5-oxo-4,5-dihydro-1,3,4-oxadiazol-2-yl)propyl)sulfamoyl)-N-methylpiperidine-4-carboxamide] | 1000 to 10000
8 | Cc1ccc(F)c([C@H](C)[C@H](NS(=O)(=O)N2CCC(c3c[nH]c4ccccc34)CC2)c2n[nH]c(=O)o2)c1C [Example 69, N-((1S,2S)-2-(6-fluoro-2,3-dimethylphenyl)-1-(5-oxo-4,5-dihydro-1,3,4-oxadiazol-2-yl)propyl)-4-(1H-indol-3-yl)piperidine-1-sulfonamide] | 10000 to 100000
9 | Cc1ccc(F)c([C@@H](C)[C@H](NS(=O)(=O)N2C3CCC2CC(F)(F)C3)c2n[nH]c(=O)o2)c1C [Example 110, 3,3-difluoro-N-((1S,2R)-2-(6-fluoro-2,3-dimethylphenyl)-1-(5-oxo-4,5-dihydro-1,3,4-oxadiazol-2-yl)propyl)-8-azabicyclo[3.2.1]octane-8-sulfonamide] | 100 to 1000
10 | Cc1ccc(F)c([C@H](C)[C@H](NS(=O)(=O)N2CCC(Cl)CC2)c2n[nH]c(=O)o2)c1C [Example 6, 4-chloro-N-((1S,2S)-2-(6-fluoro-2,3-dimethylphenyl)-1-(5-oxo-4,5-dihydro-1,3,4-oxadiazol-2-yl)propyl)piperidine-1-sulfonamide] | 1000 to 10000
11 | Cc1ccc(F)c([C@@H](C)[C@H](NS(=O)(=O)N2CCC(C(F)F)CC2)c2n[nH]c(=O)o2)c1C [Example 45, 4-(difluoromethyl)-N-((1S,2R)-2-(6-fluoro-2,3-dimethylphenyl)-1-(5-oxo-4,5-dihydro-1,3,4-oxadiazol-2-yl)propyl)piperidine-1-sulfonamide] | 1000 to 10000
12 | Cc1ccc(F)c([C@H](C)[C@H](NS(=O)(=O)N2CCCCC2C(=O)O)c2n[nH]c(=O)o2)c1C (stereo partly drawn) [Example 14, 1-(N-((1S,2S)-2-(6-fluoro-2,3-dimethylphenyl)-1-(5-oxo-4,5-dihydro-1,3,4-oxadiazol-2-yl)propyl)sulfamoyl)piperidine-2-carboxylic acid] | 10000 to 100000
13 | Cc1ccc(F)c(C(C)[C@H](NS(=O)(=O)N2CCCC(N(C)C)C2)c2n[nH]c(=O)o2)c1C (stereo partly drawn) [Example 25, 3-(dimethylamino)-N-((1S)-2-(6-fluoro-2,3-dimethylphenyl)-1-(5-oxo-4,5-dihydro-1,3,4-oxadiazol-2-yl)propyl)piperidine-1-sulfonamide] | 10000 to 100000
14 | COC(=O)C1(C)CCN(S(=O)(=O)N[C@H](c2n[nH]c(=O)o2)[C@H](C)c2c(F)ccc(C)c2C)CC1 [Example 78, methyl 1-(N-((1S,2R)-2-(6-fluoro-2,3-dimethylphenyl)-1-(5-oxo-4,5-dihydro-1,3,4-oxadiazol-2-yl)propyl)sulfamoyl)-4-methylpiperidine-4-carboxylate] | 100 to 1000
15 | Cc1ccc(F)c([C@@H](C)[C@H](NS(=O)(=O)N2CCC[C@@](C)(O)C2)c2n[nH]c(=O)o2)c1C [Example 22, (R)-N-((1S,2R)-2-(6-fluoro-2,3-dimethylphenyl)-1-(5-oxo-4,5-dihydro-1,3,4-oxadiazol-2-yl)propyl)-3-hydroxy-3-methylpiperidine-1-sulfonamide] | 10000 to 100000
16 | Cc1ccc(F)c([C@@H](C)[C@H](NS(=O)(=O)N2CCC(c3c[nH]c4ccccc34)CC2)c2n[nH]c(=O)o2)c1C [Example 68, N-((1S,2R)-2-(6-fluoro-2,3-dimethylphenyl)-1-(5-oxo-4,5-dihydro-1,3,4-oxadiazol-2-yl)propyl)-4-(1H-indol-3-yl)piperidine-1-sulfonamide] | 1000 to 10000
17 | Cc1ccc(F)c([C@H](C)[C@H](NS(=O)(=O)N2CCC3(CCCC3)CC2)c2n[nH]c(=O)o2)c1C [Example 72, N-((1S,2S)-2-(6-fluoro-2,3-dimethylphenyl)-1-(5-oxo-4,5-dihydro-1,3,4-oxadiazol-2-yl)propyl)-8-azaspiro[4.5]decane-8-sulfonamide] | 1000 to 10000
18 | Cc1ccc(F)c([C@@H](C)[C@H](NS(=O)(=O)N2CCC(C(C)(C)C)CC2)c2n[nH]c(=O)o2)c1C [Example 131, 4-(tert-butyl)-N-((1S,2R)-2-(6-fluoro-2,3-dimethylphenyl)-1-(5-oxo-4,5-dihydro-1,3,4-oxadiazol-2-yl)propyl)piperidine-1-sulfonamide] | 100 to 1000
19 | Cc1ccc(F)c([C@@H](C)[C@H](NS(=O)(=O)N2CCC(CCl)CC2)c2n[nH]c(=O)o2)c1C [Example 41, 4-(chloromethyl)-N-((1S,2R)-2-(6-fluoro-2,3-dimethylphenyl)-1-(5-oxo-4,5-dihydro-1,3,4-oxadiazol-2-yl)propyl)piperidine-1-sulfonamide] | 100 to 1000
20 | Cc1ccc(F)c([C@@H](C)[C@H](NS(=O)(=O)N2CC3CCCC(C3)C2)c2n[nH]c(=O)o2)c1C [Example 43, N-((1S,2R)-2-(6-fluoro-2,3-dimethylphenyl)-1-(5-oxo-4,5-dihydro-1,3,4-oxadiazol-2-yl)propyl)-3-zabicyclo[3.3.1]nonane-3-sulfonamide] | 1000 to 10000
